{
  "source": "ChEMBL document CHEMBL1122063",
  "about": "“Renin inhibitors. Substitution of the leucyl residues of Leu-Leu-Val-Phe-OCH3 with 3-amino-2-hydroxy-5-methylhexanoic acid” (J Med Chem, 1982)",
  "target": "T1, Renin (Homo sapiens, UniProt P00797)",
  "T1 sequence (P00797 whole entry)": "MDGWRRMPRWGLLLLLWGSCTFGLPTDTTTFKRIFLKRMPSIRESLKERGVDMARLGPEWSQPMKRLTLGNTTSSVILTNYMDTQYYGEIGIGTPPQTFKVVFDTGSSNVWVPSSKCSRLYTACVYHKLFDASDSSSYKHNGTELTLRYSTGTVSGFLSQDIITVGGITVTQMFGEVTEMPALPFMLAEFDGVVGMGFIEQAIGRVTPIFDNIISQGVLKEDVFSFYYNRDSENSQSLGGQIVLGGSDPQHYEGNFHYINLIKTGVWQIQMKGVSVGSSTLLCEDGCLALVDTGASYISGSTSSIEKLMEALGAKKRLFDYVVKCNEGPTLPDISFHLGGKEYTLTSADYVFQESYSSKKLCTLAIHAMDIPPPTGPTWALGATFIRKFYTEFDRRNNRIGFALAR",
  "assay": "Competitive inhibition of renin from human amniotic […]",
  "data": [
    {"smiles": "COC(=O)[C@H](Cc1ccccc1)NC(=O)[C@@H](NC(=O)[C@H](CC(C)C)NC(=O)[C@@H](O)[C@@H](N)CC(C)C)C(C)C", "values": [
      {"measurement": "Ki", "result": 960, "unit": "µM"}
    ]},
    {"smiles": "COC(=O)[C@H](Cc1ccccc1)NC(=O)[C@@H](NC(=O)[C@H](O)[C@@H](N)CC(C)CC(=O)[C@@H](N)CC(C)C)C(C)C", "note": "(stereo partly specified)", "values": [
      {"measurement": "Ki", "result": 440, "unit": "µM"}
    ]},
    {"smiles": "COC(=O)[C@H](Cc1ccccc1)NC(=O)[C@@H](NC(=O)[C@@H](O)[C@@H](N)CC(C)CC(=O)[C@@H](N)CC(C)C)C(C)C", "note": "(stereo partly specified)", "values": [
      {"measurement": "Ki", "result": 520, "unit": "µM"}
    ]},
    {"smiles": "COC(=O)[C@H](Cc1ccccc1)NC(=O)[C@@H](NC(=O)[C@@H](CC(C)C)NC(=O)[C@H](O)[C@@H](N)CC(C)C)C(C)C", "values": [
      {"measurement": "Ki", "result": 1520, "unit": "µM"}
    ]},
    {"smiles": "COC(=O)[C@H](Cc1ccccc1)NC(=O)[C@@H](NC(=O)[C@H](O)[C@@H](N)CC(C)C)C(C)C", "values": [
      {"measurement": "Ki", "result": 1010, "unit": "µM"}
    ]},
    {"smiles": "COC(=O)[C@H](Cc1ccccc1)NC(=O)[C@@H](NC(=O)[C@@H](O)[C@@H](N)CC(C)C)C(C)C", "values": [
      {"measurement": "Ki", "result": 2440, "unit": "µM"}
    ]}
  ]
}
